Among the data in patent US5958903A, “Galanthamine derivatives, and their pharmaceutical compositions” (priority 1995, dated 1999) are IC50 values, retold here.

The target of the experiment is T1, acetylcholinesterase (Electrophorus electricus, UniProt O42275).
T1 construct: purchased SIGMA C 2888; host or cells: electric organ of Electrophorus electricus
Briefly: cholinesterase inhibitory activity: acetylcholinesterase activity by the Ellman method. It counts as biochemical. The following applies: acetylthiocholine iodide substrate, DTNB, phosphate buffer pH 8, 25° C., absorbance at 412 nm; read-out: IC50 ± SD (inhibitory concentration at 50% activity of the enzyme). (In Ellman's method for cholinesterases, released thiocholine reacts with DTNB.)

T1 sequence (O42275 24-633): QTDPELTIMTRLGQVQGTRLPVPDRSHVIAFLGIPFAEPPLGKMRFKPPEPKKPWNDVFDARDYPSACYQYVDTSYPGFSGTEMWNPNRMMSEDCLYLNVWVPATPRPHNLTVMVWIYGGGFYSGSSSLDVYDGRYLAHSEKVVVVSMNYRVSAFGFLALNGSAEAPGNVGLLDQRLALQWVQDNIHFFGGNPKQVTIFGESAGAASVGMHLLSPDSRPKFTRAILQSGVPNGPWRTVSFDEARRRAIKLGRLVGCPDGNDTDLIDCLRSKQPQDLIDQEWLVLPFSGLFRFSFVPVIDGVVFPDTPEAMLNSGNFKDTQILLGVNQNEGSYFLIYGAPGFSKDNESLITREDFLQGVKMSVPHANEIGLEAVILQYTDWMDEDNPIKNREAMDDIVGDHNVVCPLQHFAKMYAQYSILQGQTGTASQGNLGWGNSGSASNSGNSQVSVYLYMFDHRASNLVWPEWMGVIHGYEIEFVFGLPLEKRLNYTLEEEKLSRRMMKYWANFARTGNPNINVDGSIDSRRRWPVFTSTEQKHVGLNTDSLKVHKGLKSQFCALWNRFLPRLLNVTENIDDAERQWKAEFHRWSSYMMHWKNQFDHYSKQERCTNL
Method: In order to measure the cholinesterase inhibitory activity of the compounds of the invention, the enzymatic activity of acetylcholinesterase is evaluated by the Ellman method (Biochemical Pharmacology, 1961, Vol. 7 pp 88-95, Ellman et al.).
The principle of the method comprises measuring the rate of thiocholine at the time of hydrolysis of the acetylcholine by the enzyme. The hydrolysis is accompanied by a continuous reaction between thiocholine and 5,5'-dithio-2-nitrobenzoic acid (DTNB) which leads to the formation of the yellow colored 5-thio-2-nitrobenzoate anion. The rate of the formation of the anion is measured by absorbance at 412 nm.
The material used is comprised of a 0.1 M (pH 8) phosphate buffer: Na2 HPO4 /NaH2 PO4, an enzyme: acetylcholinesterase from the electrical organ of the electric ray Electrophorus electricus (SIGMA C 2888) purified on Sephadex resin, a substrate: acetylthiocholine iodide 7.5 mM (21.67 mg/10 ml of phosphate buffer) and a reagant: 5,5'-dithio-2-nitrobenzoic acid (DTNB) 10 mM (39.6mg / 10 ml of phosphate buffer).
Thus 3 ml of phosphate buffer, 100 μl of DTNB, 2 μl enzyme, 3.3 μl of the compound according to the invention, and 200 μl of substrate are mixed at 25° C., subsequently the change of absorbance at 412 nm is measured immediately.

`COc1ccc2c3c1O[C@H]1C[C@@H](O)C=C[C@@]31CC[N+](C)=C2` [Example 1, galanthaminium methanesulfonate]: the IC50 turned out to be 0.08 ± 0.002 µM. For the molecule `COc1ccc2c3c1O[C@H]1C[C@@H](O)C=C[C@@]31CC[N+](CCCCCCn1cccc1)=C2` [Example 11, 10-N-demethyl-10-N-(6'pyrrolohexyl)-galanthaminium bromohydrate], the IC50 stood at 0.17 ± 0.01 µM.
